Reference: patent publication US8865124B2, “Probe reagent for measuring oxidative stress” (Japan Science and Technology Agency, priority 2008, dated 2014)
Peptide text beside a SMILES is read from it. * marks the point of attachment. Cbz = O=C(OCc1ccccc1)*

Legend:
[1] = test system: HeLa cells expressing the probe reagent mKO2-Nrf2—100-T2A-Keap1; assay: Evaluation of a probe reagent by imaging of a cell (mKO2 fluorescence, time-lapse microscope); type: cell-based, human
Experimental: The prepared cDNA was transfected into HeLa cells that were cultured on a glass bottom dish by using FuGENE HD (manufactured by Roche Applied Science). The medium was replaced by the fresh medium 12 hours after the transfection. […] This microscope was equipped with a cooled CCD camera so that fluorescent images of a cell were able to be captured over time.
In order to verify that the constructed probe reagent responded correctly to oxidative stress as intended, diethylmaleate (DEM), which is an oxidative stress inducer, was added at a concentration of 100 μM, and the fluorescent intensity of mKO2 (ex; BP520-540HQ, em; BP555-600HQ) was measured. […] When ethanol, a solvent, was added at 0.1% as a control, the fluorescent intensity of mKO2 was not increased.
In order to verify that this probe reagent was degraded by a proteasome in a cell under conditions without being exposed to oxidative stress, an experiment using a proteasome inhibitor, MG132, was carried out. […] In contrast, after dimethylsulfoxide (DMSO), a solvent, was added at 0.1% as a control, the fluorescent intensity of mKO2 was not increased (FIG. 5).

[2] = test system: mKO2-Nrf2 fusion molecule in HeLa cells; assay: Evaluation of a probe reagent by Western blotting using an anti-Nrf2 antibody; type: cell-based, human; conditions: MG132 10 μM versus 0.1% DMSO; FIG. 6
Experimental: First, to confirm that this probe reagent was separated into an mKO2-Nrf2 fusion molecule and Keap1 by the T2A peptide in a cell, the following experiments were performed. The cDNA, which was prepared using FuGENE® HD (Roche Applied Science Inc.), was transfected into HeLa cells cultured on a 35-mm dish. The medium was replaced by the fresh medium 12 hours after the transfection. After the 12 hours, DEM was added at a concentration of 100 μM, and ethanol was added at 0.1% as a control. The cells were cultured for further 8 hours. After that, Western blotting was conducted by using an anti-Nrf2 antibody (Santa Cruz Inc.). Both in the case of adding DEM and the case of adding ethanol, the band of the mKO2-Nrf2 fusion molecule was detected, but the band of the probe reagent comprising linked Keap1 was hardly observed.
Next, the fact that this probe reagent was degraded by a proteasome in a cell was confirmed by performing Western blotting. A proteasome inhibitor, MG132, was added at a concentration of 10 μM to HeLa cells that had been cultured in a similar manner. DMSO was added at 0.1% to control cells as well.

## CCOC(=O)/C=C\C(=O)OCC [DEM, diethylmaleate]
[1]; DEM added at 100 μM, HeLa cells transfected with probe cDNA, control 0.1% ethanol gave no increase, FIG. 3
  increase in the fluorescent intensity of mKO2: more than 10 times

## CC(C)C[C@@H](C=O)NC(=O)[C@H](CC(C)C)NC(=O)[C@H](CC(C)C)NC(=O)OCc1ccccc1 [MG132] (Cbz-Leu-Leu-Leu-aldehyde)
[1]; MG132 added at 10 μM, control 0.1% DMSO gave no increase, FIG. 5
  fluorescent intensity of mKO2: increase in the fluorescent intensity of mKO2 was observed
[2]
  band of the mKO2-Nrf2 fusion molecule (amount of probe reagent): strong band was detected compared to the case of adding DMSO

## probe reagent: fusion protein: fluorescent protein mKO2, Nrf2 amino acids 1 to 100, self-cleaved peptide T2A and Keap1; encoded by SEQ ID NO: 7
[1]; no oxidative stress loaded, 24 hours after medium change
  fluorescence of cells expressing the probe reagent before the experiment: only fluorescence at the background light level was detected
